The subject of the assay is novel coronavirus (SARS-CoV-2). Briefly: microbe, parasite or virus in culture. It counts as cell-based. The settings on record: for IC50: Severe acute respiratory syndrome coronavirus 2, Vero, 24 h, read-out: Infection inhibitory concentration IC50.

Regarding `COC(=O)c1cc(/C=C/C(=O)N2CCC=C(Br)C2=O)ccc1O` [Compound 10, (E)-methyl-5-(3-(3-bromo-2-oxo-5,6-dihydropyridin-1(2H)-yl)-3-oxoprop-1-en-1-yl)-2-hydroxybenzoate], the “inhibition of viral infection compared with positive controls (in words)” value is given as “more remarkable effects than remdesivir” and the IC50 is 2.31 µM.

As to `COC(=O)c1cc(/C=C/C(=O)N2CCC=C(Cl)C2=O)ccc1OC` [Compound 3, (E)-methyl-5-(3-(3-chloro-2-oxo-5,6-dihydropyridin-1(2H)-yl)-3-oxoprop-1-en-1-yl)-2-methoxybenzoate], the “inhibition of viral infection compared with positive controls (in words)” value is reported as “more remarkable effects than remdesivir” and the IC50 worked out at 2.01 µM.

Turning to `COC(=O)c1cc(/C=C/C(=O)N2CCC=CC2=O)ccc1OC` [Compound 1, (E)-methyl-2-methoxy-5-(3-oxo-3-(2-oxo-5,6-dihydropyridin-1(2H)-yl)prop-1-en-1-yl)benzoate], the IC50 turned out to be 4.46 µM.

`O=C(/C=C/c1cccc([N+](=O)[O-])c1)N1CCC=C(Cl)C1=O` [Compound 16, (E)-3-chloro-1-(3-(3-nitrophenyl)acryloyl)-5,6-dihydropyridin-2(1H)-one]: the IC50 came out at 4.19 µM.

Regarding `COc1cc(/C=C/C(=O)N2CCC=C(Cl)C2=O)cc(OC)c1OCc1nnc(-c2cc(Cl)cc(Cl)c2)o1` [Compound 19, (E)-3-chloro-1-(3-(4-((5-(3,5-dichlorophenyl)-1,3,4-oxadiazol-2-yl)methoxy)-3,5-dimethoxyphenyl)acryloyl)-5,6-dihydropyridin-2(1H)-one], the IC50 was 4.12 µM.

For the compound `COC(=O)c1cc(/C=C/C(=O)N2CCC=C(Cl)C2=O)ccc1OC(C)=O` [Compound 13, (E)-methyl-2-acetoxy-5-(3-(3-chloro-2-oxo-5,6-dihydropyridin-1(2H)-yl)-3-oxoprop-1-en-1-yl)benzoate], the “inhibition of viral infection compared with positive controls (in words)” value was “more remarkable effects than remdesivir” and the IC50 is 1.86 µM.

Turning to `O=C(/C=C/c1cccc([N+](=O)[O-])c1)N1CCC=C(Br)C1=O` [Compound 17, (E)-3-bromo-1-(3-(3-nitrophenyl)acryloyl)-5,6-dihydropyridin-2(1H)-one], the IC50 was determined as 5.34 µM.

For `CCN(CC)CCCC(C)Nc1ccnc2cc(Cl)ccc12` (centres unmarked) [Chloroquine, reference compound], the IC50 stood at 4.1 µM.

For the compound `COC(=O)c1cc(/C=C/C(=O)N2CC=CC2=O)ccc1OC(C)=O` [Compound 4, (E)-methyl-2-acetoxy-5-(3-oxo-3-(2-oxo-2,5-dihydro-1H-pyrrol-1-yl)prop-1-en-1-yl)benzoate], the IC50 is 7.68 µM.

On to `COC(=O)c1cc(/C=C/C(=O)N2CCC=C(Cl)C2=O)ccc1O` [Compound 12, (E)-methyl-5-(3-(3-chloro-2-oxo-5,6-dihydropyridin-1(2H)-yl)-3-oxoprop-1-en-1-yl)-2-hydroxybenzoate], for which the “inhibition of viral infection compared with positive controls (in words)” value was “more remarkable effects than remdesivir” and the IC50 is 2.63 µM.

As to `CCC(CC)COC(=O)[C@H](C)N[P@](=O)(OC[C@H]1O[C@@](C#N)(c2ccc3c(N)ncnn23)[C@H](O)[C@@H]1O)Oc1ccccc1` [Remdesivir, remdesivir, reference compound], the IC50 is 2.65 µM.

With `COC(=O)c1cc(/C=C/C(=O)N2CCC=C(Br)C2=O)ccc1OC(C)=O` [Compound 11, (E)-methyl-2-acetoxy-5-(3-(3-bromo-2-oxo-5,6-dihydropyridin-1(2H)-yl)-3-oxoprop-1-en-1-yl)benzoate], the “inhibition of viral infection compared with positive controls (in words)” value is given as “more remarkable effects than remdesivir” and the IC50 was 1.97 µM.

As to `Cc1cccc(C)c1OCC(=O)N[C@@H](Cc1ccccc1)[C@@H](O)C[C@H](Cc1ccccc1)NC(=O)[C@H](C(C)C)N1CCCNC1=O` [Lopinavir, lopinavir, reference compound], the IC50 was 12.7 µM.

Consider `COC(=O)c1cc(/C=C/C(=O)N2CCC=C(Br)C2=O)ccc1OC` [Compound 9, (E)-methyl-5-(3-(3-bromo-2-oxo-5,6-dihydropyridin-1(2H)-yl)-3-oxoprop-1-en-1-yl)-2-methoxybenzoate], for which the “inhibition of viral infection compared with positive controls (in words)” value is “more remarkable effects than remdesivir” and the IC50 came to 1.6 µM.

The values above are taken from patent US20240100031A1, “PHARMACEUTICAL COMPOSITION FOR PREVENTING OR TREATING VIRAL […] PIPERLONGUMINE-BASED COMPOUND AS ACTIVE INGREDIENT” (priority 2020, published 2024).
